This is an account of results in patent publication US20250179059A1 (The Regents of the University of California, priority 2021, published 2025).

pIC50: −log10 of the molar value. Where two headings read alike, the source gives them in different places.

The target in experiment [1] is T1, human BRD4 bromodomain II (Homo sapiens, UniProt O60885).
T1 construct: human BRD4 bromodomain II [based on Genbank NM_058243, residues 349-460]; host or cells: E. coli
As to the kind of experiment: Bromodomain binding assay (AlphaScreen), BRD4 BDII. In outline: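 Tagged BRD4 BDI or BDII constructs, expressed in E. coli, competed against a K5/K8/K12/K16-acetylated biotin-H4 peptide. Proximity signal between bead pairs after room-temperature incubations gave concentration-response curves, from which IC50 was derived.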
In general terms: Alpha assays give light when donor and acceptor beads are brought close together.

In experiment [2] the test system is human SKM-1 acute myeloid leukemia cells. Description: SKM-1 antiproliferation cell-based assay (ATPlite). The note with it: Homo sapiens. In outline: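 Log-phase cells in RPMI 1640/15% FBS were seeded at 34722 cells/mL and exposed for 4 days to nine-concentration DMSO serial dilutions in triplicate. Viability was read as ATP luminescence (ATPlite 1step), and IC50 values came from variable-slope non-linear regression.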

The mark [3] stands for this setting: AlphaScreen assay, Table C2, read-out: BRD4 BDII IC50.
Setting [4] is: SKM-1, 96 h, SKM-1 antiproliferation assay, 4 days, Table C2.
Setting [5] is: BRD4 BDII AlphaScreen assay, read-out: BRD4 BD2 IC50.
[6] abbreviates: SKM-1, SKM-1 antiproliferation assay.

Usually pIC50 stands for the negative decadic logarithm of the IC50, by convention in mol/L. For orientation: GI50 means the concentration that inhibits growth by half. Take `CN1CCN(c2ccc(-c3cc(C(C)(C)C)cc(-c4ccnc(N5CCNCC5)c4)c3O)cc2Cl)C1=O` [Example 310, 1-(5′-(tert-butyl)-3-chloro-2′-hydroxy-3′-(2-(piperazin-1-yl)pyridin-4-yl)-[1,1′-biphenyl]-4-yl)-3-methylimidazolidin-2-one]: in experiment [1] (setting [3]), the pIC50 is under 7.00. In addition, in experiment [2] (setting [4]), the GI50 was in the range of 300 to 3000 nM.
The like results for `CC(=O)Nc1ccc(-c2cccc(-c3ccnc(N4CCC(O)C4)c3)c2O)cc1F` (stereo not shown) [Example 199, N-(3-fluoro-2′-hydroxy-3′-(2-(3-hydroxypyrrolidin-1-yl)pyridin-4-yl)-[1,1′-biphenyl]-4-yl)acetamide] were, in that order, 8.00 to 9.00 and 300 to 3000 nM.
The like results for `Cn1ccn(-c2ccc(-c3cc(F)cc(-c4cc(N5CCOCC5)c5cn[nH]c5c4)c3O)cc2Cl)c1=O` [Example 590, 1-(3-chloro-5′-fluoro-2′-hydroxy-3′-(4-morpholino-1H-indazol-6-yl)-[1,1′-biphenyl]-4-yl)-3-methyl-1H-imidazol-2(3H)-one] were, in that order, 8.00 to 9.00 and 30 to 300 nM.
Turning to `CC(=O)Nc1cnc(-c2cc(F)cc(-c3cccc(N4CCN(C(C)(C)C)CC4)c3)c2O)cn1` [Example 887], the pIC50 in experiment [1] (setting [5]) was under 7.00. In addition, in experiment [2] (setting [6]), the GI50 lay within 300 to 3000 nM.
Regarding `COc1cc(-c2ccc(-n3ccn(C)c3=O)c(Cl)c2)c(O)c(-c2cccc(N3CCN(C(C)(C)C)CC3)c2)n1` [Example 1028, 1-(4-(2-(3-(4-(tert-Butyl)piperazin-1-yl)phenyl)-3-hydroxy-6-methoxypyridin-4-yl)-2-chlorophenyl)-3-methyl-1H-imidazol-2(3H)-one], the pIC50 in experiment [1] (setting [5]) was 8.00 to 9.00. This compound gave a GI50 in experiment [2] (setting [6]) of 0.3 to 30 nM.
`Cn1ccn(-c2ccc(-c3cc(F)cc(-c4cc(N5CCN(C(C)(C)C)CC5)no4)c3O)cc2Cl)c1=O` [Example 905, 1-(3′-(3-(4-(tert-butyl)piperazin-1-yl)isoxazol-5-yl)-3-chloro-5′-fluoro-2′-hydroxy-[1,1′-biphenyl]-4-yl)-3-methyl-1H-imidazol-2(3H)-one]: the negative logarithm of the IC50 (pIC50) in experiment [1] (setting [5]) is 8.00 to 9.00. The compound further showed a GI50 in experiment [2] (setting [6]) of 30 to 300 nM.
With `C[C@@H]1CN(c2cc(-c3cc(F)cc(-c4ccc(-n5ccn(C)c5=O)c(Cl)c4)c3O)cn(C)c2=O)CCN1` [Example 432, (R)-5-(3′-chloro-5-fluoro-2-hydroxy-4′-(3-methyl-2-oxo-2,3-dihydro-1H-imidazol-1-yl)-[1,1′-biphenyl]-3-yl)-1-methyl-3-(3-methylpiperazin-1-yl)pyridin-2(1H)-one], the pIC50 in experiment [1] (setting [3]) was 9.00 to 11.00. Further, the GI50 in experiment [2] (setting [4]) lay in the range of 0.3 to 30 nM.
With `CC(=O)Nc1ccc(-c2cccc(-c3cc(Cl)nc(N4CCNCC4)c3)c2O)cc1F` [Example 226, N-(3′-(2-chloro-6-(piperazin-1-yl)pyridin-4-yl)-3-fluoro-2′-hydroxy-[1,1′-biphenyl]-4-yl)acetamide], the pIC50 in experiment [1] (setting [3]) is 8.00 to 9.00. For the same compound, in experiment [2] (setting [4]), the GI50 fell in the range of 300 to 3000 nM.
The like results for `Cn1ccn(-c2ccc(-c3cc(F)cc(-c4ccc(F)c(N5CCN(C(C)(C)C)CC5)c4)c3O)cc2Cl)c1=O` [Example 719, 1-(3″-(4-(tert-butyl)piperazin-1-yl)-3-chloro-4″,5′-difluoro-2′-hydroxy-[1,1′:3′,1″-terphenyl]-4-yl)-3-methyl-1H-imidazol-2(3H)-one] were, in that order, 9.00 to 11.00 and 0.3 to 30 nM.
Taken in the same sequence, the figures for `Cn1ccn(-c2ccc(-c3cc(F)cc(-c4cc(N5CCC(N)CC5)c5cn[nH]c5c4)c3O)cc2Cl)c1=O` [Example 581] were 9.00 to 11.00 and 30 to 300 nM.
Taken in the same sequence, the figures for `Cn1ccn(-c2ccc(-c3cc(F)cc(-c4ccnc(C5CCCNC5)c4)c3O)cc2Cl)c1=O` (stereo not shown) [Example 654, 1-(3-chloro-5′-fluoro-2′-hydroxy-3′-(2-(piperidin-3-yl)pyridin-4-yl)-[1,1′-biphenyl]-4-yl)-3-methyl-1H-imidazol-2(3H)-one] were 9.00 to 11.00 and 0.3 to 30 nM.
Take `Cn1ccn(-c2ccc(-c3cc(F)cc(-c4cc(-c5ccn[nH]5)nc(N5CCNCC5)c4)c3O)cc2Cl)c1=O` [Example 553, 1-(3-chloro-5′-fluoro-2′-hydroxy-3′-(2-(piperazin-1-yl)-6-(1H-pyrazol-5-yl)pyridin-4-yl)-[1,1′-biphenyl]-4-yl)-3-methyl-1H-imidazol-2(3H)-one]: in experiment [1] (setting [3]), the pIC50 is 8.00 to 9.00. Also, the GI50 in experiment [2] (setting [4]) fell in the range of 0.3 to 30 nM.
Consider `Cn1ccn(-c2ccc(-c3cc(C(F)(F)F)cc(-c4cccc(N5CCN(C(C)(C)C)CC5)c4)c3O)cc2Cl)c1=O` [Example 1025, 1-(3″-(4-(tert-butyl)piperazin-1-yl)-3-chloro-2′-hydroxy-5′-(trifluoromethyl)-[1,1′:3′,1″-terphenyl]-4-yl)-3-methyl-1H-imidazol-2(3H)-one], for which the negative-log IC50 (pIC50) in experiment [1] (setting [5]) was 8.00 to 9.00. The GI50 in experiment [2] (setting [6]) was 300 to 3000 nM.
Taken in the same sequence, the figures for `[2H]C([2H])([2H])n1ccn(-c2ccc(-c3cc(C)nc(-c4cccc(N5CCN(C(C)(C)C)CC5)c4)c3O)cc2Cl)c1=O` [Example 991, 1-(4-(2-(3-(4-(tert-Butyl)piperazin-1-yl)phenyl)-3-hydroxy-6-methylpyridin-4-yl)-2-chlorophenyl)-3-(methyl-d3)-1,3-dihydro-2H-imidazol-2-one] were 8.00 to 9.00 and 0.3 to 30 nM.
Regarding `Cn1ccn(-c2ccc(-c3cc(F)cc(-c4cc(N5CC[C@@](C)(O)C5)n(C)c(=O)c4)c3O)cc2Cl)c1=O` [Example 777, (R)-4-(3′-chloro-5-fluoro-2-hydroxy-4′-(3-methyl-2-oxo-2,3-dihydro-1H-imidazol-1-yl)-[1,1′-biphenyl]-3-yl)-6-(3-hydroxy-3-methylpyrrolidin-1-yl)-1-methylpyridin-2(1H)-one], the pIC50 in experiment [1] (setting [3]) is 9.00 to 11.00. The GI50 in experiment [2] (setting [4]) was in the range of 0.3 to 30 nM.
Turning to `Cc1ncc(-c2cc(F)cc(-c3ccc(-n4ccn(C)c4=O)c(Cl)c3)c2O)cc1N1CC(F)(F)[C@](C)(O)C1` [Example 898], in experiment [1] (setting [5]), the pIC50 is 8.00 to 9.00. This compound displayed a GI50 in experiment [2] (setting [6]) of 30 to 300 nM.
For `Cn1ccn(-c2ccc(-c3cc(F)cc(-c4ccnc(N5CCNC(C)(C)C5)c4)c3O)cc2Cl)c1=O` [Example 563, 1-(3-chloro-3′-(2-(3,3-dimethylpiperazin-1-yl)pyridin-4-yl)-5′-fluoro-2′-hydroxy-[1,1′-biphenyl]-4-yl)-3-methyl-1H-imidazol-2(3H)-one], the pIC50 in experiment [1] (setting [3]) was 9.00 to 11.00. The same compound gave a GI50 in experiment [2] (setting [4]) of 0.3 to 30 nM.
As for `Cn1ccn(-c2ccc(-c3cc(F)cc(-c4ccnc(N5CCN(CCC6CC6)CC5)c4)c3O)cc2Cl)c1=O` [Example 681, 1-(3-chloro-3′-(2-(4-(2-cyclopropylethyl)piperazin-1-yl)pyridin-4-yl)-5′-fluoro-2′-hydroxy-[1,1′-biphenyl]-4-yl)-3-methyl-1H-imidazol-2(3H)-one], the pIC50 in experiment [1] (setting [3]) was 9.00 to 11.00. In experiment [2] (setting [4]), the GI50 fell in the range of 0.3 to 30 nM.
Consider `CC(C)N1C2CCC1CN(c1cc(-c3cc(F)cc(-c4ccc(-n5ccn(C)c5=O)c(Cl)c4)c3O)ccn1)C2` [Example 730, 1-(3-chloro-5′-fluoro-2′-hydroxy-3′-(2-(8-isopropyl-3,8-diazabicyclo[3.2.1]octan-3-yl)pyridin-4-yl)-[1,1′-biphenyl]-4-yl)-3-methyl-1H-imidazol-2(3H)-one], for which the pIC50 in experiment [1] (setting [3]) was 9.00 to 11.00. Moreover, the GI50 in experiment [2] (setting [4]) fell in the range of 0.3 to 30 nM.
With `CC(=O)Nc1cnc(-c2cc(F)cc(-c3cccc(N4CCN(C(C)(C)C)CC4)c3)c2O)nc1` [Example 894], in experiment [1] (setting [5]), the negative logarithm of the IC50 (pIC50) was under 7.00. In experiment [2] (setting [6]), this compound showed a GI50 of 300 to 3000 nM.
`CC(=O)Nc1ccc(-c2cccc(-c3cc(OC4CCC(N)CC4)nc(N4CCNCC4)c3)c2O)cc1F` (stereo not shown) [Example 375, N-(3′-(2-((4-aminocyclohexyl)oxy)-6-(piperazin-1-yl)pyridin-4-yl)-3-fluoro-2′-hydroxy-[1,1′-biphenyl]-4-yl)acetamide]: the negative logarithm of the IC50 (pIC50) in experiment [1] (setting [3]) is 7.00 to 8.00. The GI50 in experiment [2] (setting [4]) was in the range of 300 to 3000 nM.
Consider `COc1ncc(-c2cc(F)cc(-c3ccc(-n4ccn(C)c4=O)c(F)c3)c2O)cc1N1CCN(C(C)(C)C)CC1` [Example 939, 1-(3′-(5-(4-(tert-butyl)piperazin-1-yl)-6-methoxypyridin-3-yl)-3,5′-difluoro-2′-hydroxy-[1,1′-biphenyl]-4-yl)-3-methyl-1H-imidazol-2(3H)-one], for which the pIC50 in experiment [1] (setting [5]) was 8.00 to 9.00. Besides, the GI50 in experiment [2] (setting [6]) was in the range of 0.3 to 30 nM.
`Cn1ccn(-c2ccc(-c3cc(F)cc(-c4ccnc(N5CCNCC5=O)c4)c3O)cc2Cl)c1=O` [Example 463, 1-(4-(3′-chloro-5-fluoro-2-hydroxy-4′-(3-methyl-2-oxo-2,3-dihydro-1H-imidazol-1-yl)-[1,1′-biphenyl]-3-yl)pyridin-2-yl)piperazin-2-one]: the pIC50 in experiment [1] (setting [3]) is 9.00 to 11.00. The GI50 in experiment [2] (setting [4]) is 30 to 300 nM.
For the compound `COc1ncc(-c2cc(F)cc(-c3ccc(-n4ccn(C)c4=O)c(Cl)c3)c2O)cc1N1CC2CCC(C1)N2C(C)C` [Example 836, 1-(3-chloro-5′-fluoro-2′-hydroxy-3′-(5-(8-isopropyl-3,8-diazabicyclo[3.2.1]octan-3-yl)-6-methoxypyridin-3-yl)-[1,1′-biphenyl]-4-yl)-3-methyl-1H-imidazol-2(3H)-one], in experiment [1] (setting [3]), the negative logarithm of the IC50 (pIC50) was 8.00 to 9.00. Moreover, the GI50 in experiment [2] (setting [4]) was 0.3 to 30 nM.
Taken in the same sequence, the figures for `COCC(C)(C)N1CCN(c2cc(-c3cc(F)cc(-c4ccc(-n5ccn(C)c5=O)c(Cl)c4)c3O)cn(C)c2=O)CC1` [Example 763] were 8.00 to 9.00 and 0.3 to 30 nM.
The like results for `Cn1ccn(-c2ccc(-c3cc(F)cc(-c4cnnc(N5CCN(C(C)(C)C)CC5)c4)c3O)cc2Cl)c1=O` [Example 798, 1-(3′-(6-(4-(tert-butyl)piperazin-1-yl)pyridazin-4-yl)-3-chloro-5′-fluoro-2′-hydroxy-[1,1′-biphenyl]-4-yl)-3-methyl-1H-imidazol-2(3H)-one] were, in that order, 9.00 to 11.00 and 0.3 to 30 nM.
